Experimental data published in patent publication US8895504B2, “Amylin derivatives” (priority 2008, dated 2014).
*1 amine or outer side, *2 acyl side, *3 side chain or, on linkers, in order; H or OH if unused. Where a SMILES comes first, the peptide text is derived from it. Bridges are numbered along the chain shown (N, C = ends). The star is where a group is joined. C20 diacid = O=C(O)CCCCCCCCCCCCCCCCCCC(=O)*; γGlu = O=C(O)[C@H](CCC(=O)[*:2])N[*:1]; AEEA = NCCOCCOCC(=O)O

Experiments:
[1] = biological target: T1, Amylin 3(a) receptor (human calcitonin receptor (CTa) and RAMP-3) (Homo sapiens, UniProt O60896+P30988); test: Luciferase assay (III), BHK Amylin 3(a)//CRE-luc cells; format: cell-based; conditions: BHK cells with Amylin 3(a) receptor and CRE luciferase reporter, 4 hours incubation; read-out: Potency Luciferase
T1 construct: expressed in transfected cells; host or cells: BHK570 cells, stably transfected with a CRE-luciferase reporter
T1 sequence (O60896 24-148): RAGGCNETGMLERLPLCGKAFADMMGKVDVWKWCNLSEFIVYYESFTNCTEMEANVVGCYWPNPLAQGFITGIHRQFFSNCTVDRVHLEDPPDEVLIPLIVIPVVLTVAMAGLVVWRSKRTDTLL
T1 sequence (P30988 25-474): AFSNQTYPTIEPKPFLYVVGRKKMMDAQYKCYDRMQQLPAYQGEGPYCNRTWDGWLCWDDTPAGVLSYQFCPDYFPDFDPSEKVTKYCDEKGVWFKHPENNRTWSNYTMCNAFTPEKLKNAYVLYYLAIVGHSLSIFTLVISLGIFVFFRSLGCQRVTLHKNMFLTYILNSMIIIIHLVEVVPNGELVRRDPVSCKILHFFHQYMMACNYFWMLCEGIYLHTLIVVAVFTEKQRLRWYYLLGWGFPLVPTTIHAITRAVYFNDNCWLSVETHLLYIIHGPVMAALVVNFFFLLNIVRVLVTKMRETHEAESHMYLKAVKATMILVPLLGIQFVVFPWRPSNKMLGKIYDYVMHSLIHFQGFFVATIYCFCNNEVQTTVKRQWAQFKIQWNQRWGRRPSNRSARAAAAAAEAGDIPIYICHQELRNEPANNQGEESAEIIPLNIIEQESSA
In short: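 Read-out is CRE-driven luciferase luminescence, taken 30 min after LucLite addition at room temperature. Compounds were incubated 4 h at 37° C in assay medium (10% FBS, 10 mM Hepes, pH 7,4). The cell line is BHK570 co-transfected with human calcitonin receptor CTa and RAMP-3, seeded overnight before use.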

[2] = Assay (V) PK - determination of T½ in mini-pig; format: in vivo; conditions: minipig, sc; terminal plasma half-life, subcutaneous, approx 2 nmol/kg, male Göttingen mini-pigs
Experimental: Assay (V) PK—Determination OF T½ in Mini-Pig
T½ is the terminal half-life=ln 2/λz of a compound in plasma. λz is the first order rate constant associated with the terminal (log-linear) portion of the plasma concentration-time curve and is estimated by linear regression of time vs. log concentration.
T½ values of the amylin analogues of the invention is determined by pharmacokinetic studies in male Göttingen mini-pigs from Ellegaard Göttingen Minipigs ApS and the principles of laboratory animal care are followed.
An acclimatization period of approximately 6-10 days was allowed before the animals entered the study. At start of the acclimatization period the mini-pigs were about 5 to 12 months old and in the weight range of 7-35 kg. The mini-pigs had two central venous catheters inserted which were used for blood sampling.
The studies were conducted in an animal room which was illuminated to give a cycle of approx 12 hours light and 12 hours darkness. The animals were housed individually.
The animals had free access to domestic quality drinking water during the study, but were typically fasted from overnight before dosing until approx 6-12 hours after dosing. The animals were weighed on arrival and on the days of dosing.
In the present studies the test substances were administered subcutaneously in approx 2 nmol/kg dose. The animals received a single subcutaneous injection. The subcutaneous injection was given on the right side of the neck, approximately 5-7 cm from the ear and 7-9 cm from the middle of the neck. The injections were given with a stopper on the needle, allowing approx 0.5 cm of the needle to be introduced. Each test substance was given to typically three but in some cases two or four animals.
A full plasma concentration-time profile, employing 12-16 sampling points, was obtained from each animal. In example blood samples were collected according to the following schedule:
After subcutaneous administration:
Predose (0), 0.5, 1, 2, 4, 6, 8, 12, 24, 48, 72, 96, 120, 168 and 240 hours after injection. In some cases also additional blood samples up to 288 hours post injection were taken.
At each sampling time, 0.5 to 2 ml of blood was drawn from each animal. The blood samples were taken via the central venous catheter.
The blood samples were collected into EDTA test tubes (i.e. Sarstedt Micro tube 1.3 mL K3E). Blood samples were kept on ice for max 20 min. before centrifugation. Plasma was separated using centrifugation (i.e. at 4° C., 10 min., 1500 G) and was immediately transferred to Micronic tubes. Approximately 200 μl plasma was transferred to each Micronic tube. The plasma was stored at −20° C. until assayed. The plasma samples were assayed for the content of amylin using an ELISA assay.
The plasma concentration-time profiles were analysed by a non-compartmental pharmacokinetic analysis (NCA) using WinNonlin Professional 5.0 (Pharsight Inc., Mountain View, Calif., USA). NCA was performed using the individual plasma concentration-time profiles from each animal. T½ is the terminal half-life=ln 2/λz and was determined from λz, the first order rate constant associated with the terminal (log-linear) portion of the curve, estimated by linear regression of time vs. log concentration.
ELISA Plasma Assay for Amylin Quantification
The human amylin ELISA is a monoclonal antibody-based sandwich immunoassay for determining amylin levels in human plasma. The capture antibody recognizes human amylin, amylin acid (deamidated amylin), a 1-20 fragment of amylin, but not reduced amylin.
The detection antibody binds to reduced or unreduced human amylin but not amylin acid and is complexed with streptavidin-alkaline phosphatase. The substrate, 4-methylumbelliferyl phosphate, is applied to the completed sandwich and the fluorescent signal, monitored at 355 nm/460 nm, is proportional to the amount of amylin present in the sample.

`CC[C@H](C)[C@H](NC(=O)[C@@H]1CCCN1C(=O)CNC(=O)[C@H](Cc1ccccc1)NC(=O)[C@H](CC(N)=O)NC(=O)[C@H](CC(N)=O)NC(=O)[C@H](CO)NC(=O)[C@H](CO)NC(=O)[C@H](Cc1c[nH]cn1)NC(=O)[C@H](Cc1c[nH]cn1)NC(=O)[C@H](CC(C)C)NC(=O)[C@H](Cc1ccccc1)NC(=O)[C@H](CC(N)=O)NC(=O)[C@H](C)NC(=O)[C@H](CC(C)C)NC(=O)[C@H](CCCNC(=N)N)NC(=O)[C@H](CCC(N)=O)NC(=O)[C@@H](NC(=O)[C@H](C)NC(=O)[C@@H]1CSSC[C@H](NC(=O)[C@H](Cc2c[nH]cn2)NC(=O)CC[C@H](NC(=O)CCCCCCCCCCCCCCCCCCC(=O)O)C(=O)O)C(=O)N[C@@H](CC(N)=O)C(=O)N[C@@H]([C@@H](C)O)C(=O)N[C@@H](C)C(=O)N[C@@H]([C@@H](C)O)C(=O)N1)[C@@H](C)O)C(=O)N[C@@H](CC(C)C)C(=O)N1CCC[C@H]1C(=O)N1CCC[C@H]1C(=O)N[C@H](C(=O)N[C@@H](CC(N)=O)C(=O)N[C@H](C(=O)NCC(=O)N[C@@H](CO)C(=O)N[C@@H](CC(N)=O)C(=O)N[C@H](C(=O)N[C@@H](Cc1ccc(O)cc1)C(N)=O)[C@@H](C)O)C(C)C)[C@@H](C)O` [Example 29, N-alpha-[(S)-4-Carboxy-4-(19-carboxynonadecanoylamino)butyryl]-[His1,His17]-pramlintide] ({C20 diacid-γGlu}-HCNTATCATQRLANFLHHSSNNFGPILPPTNVGSNTY-NH2; disulfide 2-7) gave an EC50 [1] of 0.07 nM and a half-life [2] of 110 h.
In the case of `CC[C@H](C)[C@H](NC(=O)[C@@H]1CCCN1C(=O)CNC(=O)[C@H](Cc1ccccc1)NC(=O)[C@H](CC(N)=O)NC(=O)[C@H](CC(N)=O)NC(=O)[C@H](CO)NC(=O)[C@H](CO)NC(=O)[C@H](Cc1c[nH]cn1)NC(=O)[C@H](Cc1c[nH]cn1)NC(=O)[C@H](CC(C)C)NC(=O)[C@H](Cc1ccccc1)NC(=O)[C@H](CC(N)=O)NC(=O)[C@H](C)NC(=O)[C@H](CC(C)C)NC(=O)[C@H](CCCNC(=N)N)NC(=O)[C@H](CCC(N)=O)NC(=O)[C@@H](NC(=O)[C@H](C)NC(=O)[C@@H]1CSSC[C@H](NC(=O)[C@H](CCCNC(=N)N)NC(=O)[C@H](Cc2c[nH]cn2)NC(=O)[C@H](Cc2c[nH]cn2)NC(=O)COCCOCCNC(=O)CC[C@H](NC(=O)CCCCCCCCCCCCCCCCCCC(=O)O)C(=O)O)C(=O)N[C@@H](CC(N)=O)C(=O)N[C@@H]([C@@H](C)O)C(=O)N[C@@H](C)C(=O)N[C@@H]([C@@H](C)O)C(=O)N1)[C@@H](C)O)C(=O)N[C@@H](CC(C)C)C(=O)N1CCC[C@H]1C(=O)N1CCC[C@H]1C(=O)N[C@H](C(=O)N[C@@H](CC(N)=O)C(=O)N[C@H](C(=O)NCC(=O)N[C@@H](CO)C(=O)N[C@@H](CC(N)=O)C(=O)N[C@H](C(=O)N[C@@H](Cc1ccc(O)cc1)C(N)=O)[C@@H](C)O)C(C)C)[C@@H](C)O` [Example 56, N-alpha-[2-(2-{2-[4-(S)-Carboxy-4-(19-carboxynonadecanoylamino)butyrylamino]ethoxy}ethoxy)acetyl]-His-His-[Arg1,His17]-pramlintide] ({C20 diacid-γGlu-AEEA}-HHRCNTATCATQRLANFLHHSSNNFGPILPPTNVGSNTY-NH2; disulfide 4-9), the EC50 [1] is reported as 0.09 nM and the half-life [2] is reported as 31 h.
Work on `CC[C@H](C)[C@H](NC(=O)[C@@H]1CCCN1C(=O)CNC(=O)[C@H](Cc1ccccc1)NC(=O)[C@H](CC(N)=O)NC(=O)[C@H](CC(N)=O)NC(=O)[C@H](CO)NC(=O)[C@H](CO)NC(=O)[C@H](Cc1c[nH]cn1)NC(=O)[C@H](Cc1c[nH]cn1)NC(=O)[C@H](CC(C)C)NC(=O)[C@H](Cc1ccccc1)NC(=O)[C@H](CC(N)=O)NC(=O)[C@H](C)NC(=O)[C@H](CC(C)C)NC(=O)[C@H](CCCNC(=N)N)NC(=O)[C@H](CCC(N)=O)NC(=O)[C@@H](NC(=O)[C@H](C)NC(=O)[C@@H]1CSSC[C@H](NC(=O)[C@H](Cc2c[nH]cn2)NC(=O)COCCOCCNC(=O)CC[C@H](NC(=O)CCCCCCCCCCCCCCCCCCC(=O)O)C(=O)O)C(=O)N[C@@H](CC(N)=O)C(=O)N[C@@H]([C@@H](C)O)C(=O)N[C@@H](C)C(=O)N[C@@H]([C@@H](C)O)C(=O)N1)[C@@H](C)O)C(=O)N[C@@H](CC(C)C)C(=O)N1CCC[C@H]1C(=O)N1CCC[C@H]1C(=O)N[C@H](C(=O)N[C@@H](CC(N)=O)C(=O)N[C@H](C(=O)NCC(=O)N[C@@H](CO)C(=O)N[C@@H](CC(N)=O)C(=O)N[C@H](C(=O)N[C@@H](Cc1ccc(O)cc1)C(N)=O)[C@@H](C)O)C(C)C)[C@@H](C)O` [Example 37, N-alpha-[2-(2-{2-[4-(S)-Carboxy-4-(19-carboxynonadecanoylamino)butyrylamino]ethoxy}ethoxy)acetyl]-[His1,His17]-pramlintide] ({C20 diacid-γGlu-AEEA}-HCNTATCATQRLANFLHHSSNNFGPILPPTNVGSNTY-NH2; disulfide 2-7) yielded an EC50 [1] of 0.09 nM and a half-life [2] of 66 h.
In the case of `CC[C@H](C)[C@H](NC(=O)[C@@H]1CCCN1C(=O)CNC(=O)[C@H](Cc1ccccc1)NC(=O)[C@H](CC(N)=O)NC(=O)[C@H](CC(N)=O)NC(=O)[C@H](CO)NC(=O)[C@H](CO)NC(=O)[C@H](Cc1c[nH]cn1)NC(=O)[C@H](CCCNC(=N)N)NC(=O)[C@H](CC(C)C)NC(=O)[C@H](Cc1ccccc1)NC(=O)[C@H](CC(N)=O)NC(=O)[C@H](C)NC(=O)[C@H](CC(C)C)NC(=O)[C@H](CCCNC(=N)N)NC(=O)[C@H](CCC(N)=O)NC(=O)[C@@H](NC(=O)[C@H](C)NC(=O)[C@@H]1CSSC[C@H](NC(=O)[C@H](CCCCN)NC(=O)[C@H](CCCNC(=N)N)NC(=O)COCCOCCNC(=O)CC[C@H](NC(=O)CCCCCCCCCCCCCCCCCCC(=O)O)C(=O)O)C(=O)N[C@@H](CC(N)=O)C(=O)N[C@@H]([C@@H](C)O)C(=O)N[C@@H](C)C(=O)N[C@@H]([C@@H](C)O)C(=O)N1)[C@@H](C)O)C(=O)N[C@@H](CC(C)C)C(=O)N1CCC[C@H]1C(=O)N1CCC[C@H]1C(=O)N[C@H](C(=O)N[C@@H](CC(N)=O)C(=O)N[C@H](C(=O)NCC(=O)N[C@@H](CO)C(=O)N[C@@H](CC(N)=O)C(=O)N[C@H](C(=O)N[C@@H](Cc1ccc(O)cc1)C(N)=O)[C@@H](C)O)C(C)C)[C@@H](C)O` [Example 23, N-alpha-[2-(2-{2-[4-(S)-Carboxy-4-(19-carboxynonadecanoylamino)butyrylamino]ethoxy}ethoxy)acetyl]-Arg-[Arg17]-pramlintide] ({C20 diacid-γGlu-AEEA}-RKCNTATCATQRLANFLRHSSNNFGPILPPTNVGSNTY-NH2; disulfide 3-8), the EC50 [1] is reported as 0.1 nM and the half-life [2] is reported as 53 h.
